Measurements taken from PubChem BioAssay AID1259407 (Chemical Carcinogenesis Research Information System (CCRIS), 2018).
The source made the active and inactive calls. How the calls were made is not given here.

Test system: CCRIS mutagenicity, Ames/micronucleus/aberration tests
Experiment: CCRIS mutagenicity studies
[1] = Test System: AMES SALMONELLA TYPHIMURIUM, Strain/Indicator: TA98, Metabolic Activation: RAT, LIVER, S-9, AROCLOR 1254, Method: STANDARD PLATE
[2] = Test System: AMES SALMONELLA TYPHIMURIUM, Strain/Indicator: TA98, Metabolic Activation: NONE, Method: STANDARD PLATE
[3] = Test System: AMES SALMONELLA TYPHIMURIUM, Strain/Indicator: TA100, Metabolic Activation: NONE, Method: STANDARD PLATE
[4] = Test System: AMES SALMONELLA TYPHIMURIUM, Strain/Indicator: TA98, Metabolic Activation: NONE, Method: PREINCUBATION
[5] = Test System: AMES SALMONELLA TYPHIMURIUM, Strain/Indicator: TA100, Metabolic Activation: NONE, Method: PREINCUBATION
[6] = Test System: AMES SALMONELLA TYPHIMURIUM, Strain/Indicator: TA1535, Metabolic Activation: NONE, Method: PREINCUBATION
[7] = Test System: AMES SALMONELLA TYPHIMURIUM, Strain/Indicator: TA1537, Metabolic Activation: NONE, Method: PREINCUBATION

## C=COC(=O)C=C
Test System: AMES SALMONELLA TYPHIMURIUM, Strain/Indicator: TA102, Metabolic Activation: RAT, LIVER, S-9, PHENOBARBITAL AND 5,6-BENZOFLAVONE, Method: STANDARD PLATE
  mutagenic call: inactive; negative
Test System: AMES SALMONELLA TYPHIMURIUM, Strain/Indicator: TA2638, Metabolic Activation: RAT, LIVER, S-9, PHENOBARBITAL AND 5,6-BENZOFLAVONE, Method: STANDARD PLATE
  mutagenic call: inactive; negative
Test System: E. COLI, Strain/Indicator: WP2 (PKM101), Metabolic Activation: RAT, LIVER, S-9, PHENOBARBITAL AND 5,6-BENZOFLAVONE, Method: STANDARD PLATE
  mutagenic call: inactive; negative
Test System: E. COLI, Strain/Indicator: WP2 UVRA (PKM101), Metabolic Activation: RAT, LIVER, S-9, PHENOBARBITAL AND 5,6-BENZOFLAVONE, Method: STANDARD PLATE
  mutagenic call: inactive; negative

## Cc1cc2c(nc(N)n2C)c2ncc(-c3ccccc3)nc12
[1]
  mutagenic call: active; positive

## CP1(C)=NP(C)(C)=NP(C)(C)=N1
[2]
  mutagenic call: inactive; negative
[1]
  mutagenic call: inactive; negative
[3]
  mutagenic call: inactive; negative
Test System: AMES SALMONELLA TYPHIMURIUM, Strain/Indicator: TA100, Metabolic Activation: RAT, LIVER, S-9, AROCLOR 1254, Method: STANDARD PLATE
  mutagenic call: inactive; negative

## Cc1cc(-c2ccc(N=C=O)c(C)c2)ccc1N=C=O
End Point: IN VITRO CHROMOSOMAL ABERRATIONS, Test System: CHL CELLS, Metabolic Activation: RAT, LIVER, S-9, SODIUM PHENOBARBITAL AND 5,6-BENZOFLAVONE
  mutagenic call: active; positive (structural changes)
[4]
  mutagenic call: inactive; negative
Test System: AMES SALMONELLA TYPHIMURIUM, Strain/Indicator: TA98, Metabolic Activation: RAT LIVER S-9, PHENOBARBITAL AND BETA-NAPHTHOFLAVONE, Method: PREINCUBATION
  mutagenic call: active; positive
[5]
  mutagenic call: inactive; negative
Test System: AMES SALMONELLA TYPHIMURIUM, Strain/Indicator: TA100, Metabolic Activation: RAT LIVER S-9, PHENOBARBITAL AND BETA-NAPHTHOFLAVONE, Method: PREINCUBATION
  mutagenic call: inactive; negative
[6]
  mutagenic call: inactive; negative
Test System: AMES SALMONELLA TYPHIMURIUM, Strain/Indicator: TA1535, Metabolic Activation: RAT LIVER S-9, PHENOBARBITAL AND BETA-NAPHTHOFLAVONE, Method: PREINCUBATION
  mutagenic call: inactive; negative
[7]
  mutagenic call: inactive; negative
Test System: AMES SALMONELLA TYPHIMURIUM, Strain/Indicator: TA1537, Metabolic Activation: RAT LIVER S-9, PHENOBARBITAL AND BETA-NAPHTHOFLAVONE, Method: PREINCUBATION
  mutagenic call: inactive; negative
Test System: AMES SALMONELLA TYPHIMURIUM, Strain/Indicator: TA1538, Metabolic Activation: NONE, Method: PREINCUBATION
  mutagenic call: inactive; negative
Test System: AMES SALMONELLA TYPHIMURIUM, Strain/Indicator: TA1538, Metabolic Activation: RAT LIVER S-9, PHENOBARBITAL AND BETA-NAPHTHOFLAVONE, Method: PREINCUBATION
  mutagenic call: active; positive
Test System: E.COLI, Strain/Indicator: WP2UVRA, Metabolic Activation: NONE, Method: PREINCUBATION
  mutagenic call: inactive; negative
Test System: E.COLI, Strain/Indicator: WP2UVRA, Metabolic Activation: RAT LIVER S-9, PHENOBARBITAL AND BETA-NAPHTHOFLAVONE, Method: PREINCUBATION
  mutagenic call: inactive; negative

## CC(C)COC(=O)NO
Test System: E. COLI, Strain/Indicator: WP2 UVRA, Metabolic Activation: NONE, Method: FLUCTUATION TEST
  mutagenic call: active; positive

## Nc1ccc(-c2cc(Cl)c(N)c(Cl)c2)cc1Cl
Test System: AMES SALMONELLA TYPHIMURIUM, Strain/Indicator: TA98/1,8-DNP6, Metabolic Activation: HAMSTER, LIVER, S-9, Method: PREINCUBATION
  mutagenic call: active; positive
Test System: AMES SALMONELLA TYPHIMURIUM, Strain/Indicator: TA98, Metabolic Activation: HAMSTER, LIVER, S-9, Method: PREINCUBATION
  mutagenic call: active; positive
[4]
  mutagenic call: active; positive
Test System: AMES SALMONELLA TYPHIMURIUM, Strain/Indicator: TA100, Metabolic Activation: HAMSTER, LIVER, S-9, Method: PREINCUBATION
  mutagenic call: active; positive

## C=C(C)C(=O)OCCCCCCCCCC
Test System: AMES SALMONELLA TYPHIMURIUM, Strain/Indicator: TA98, Metabolic Activation: HAMSTER, LIVER, S-9, AROCLOR 1254 (10%), Method: PREINCUBATION
  mutagenic call: inactive; negative
[4]
  mutagenic call: inactive; negative
Test System: AMES SALMONELLA TYPHIMURIUM, Strain/Indicator: TA98, Metabolic Activation: RAT, LIVER, S-9, AROCLOR 1254 (10%), Method: PREINCUBATION
  mutagenic call: inactive; negative
Test System: AMES SALMONELLA TYPHIMURIUM, Strain/Indicator: TA100, Metabolic Activation: HAMSTER, LIVER, S-9, AROCLOR 1254 (10%), Method: PREINCUBATION
  mutagenic call: inactive; negative
[5]
  mutagenic call: inactive; negative
Test System: AMES SALMONELLA TYPHIMURIUM, Strain/Indicator: TA100, Metabolic Activation: RAT, LIVER, S-9, AROCLOR 1254 (10%), Method: PREINCUBATION
  mutagenic call: inactive; negative
Test System: AMES SALMONELLA TYPHIMURIUM, Strain/Indicator: TA1535, Metabolic Activation: HAMSTER, LIVER, S-9, AROCLOR 1254 (10%), Method: PREINCUBATION
  mutagenic call: inactive; negative
[6]
  mutagenic call: inactive; negative
Test System: AMES SALMONELLA TYPHIMURIUM, Strain/Indicator: TA1535, Metabolic Activation: RAT, LIVER, S-9, AROCLOR 1254 (10%), Method: PREINCUBATION
  mutagenic call: inactive; negative
Test System: AMES SALMONELLA TYPHIMURIUM, Strain/Indicator: TA1537, Metabolic Activation: HAMSTER, LIVER, S-9, AROCLOR 1254 (10%), Method: PREINCUBATION
  mutagenic call: inactive; negative
[7]
  mutagenic call: inactive; negative
Test System: AMES SALMONELLA TYPHIMURIUM, Strain/Indicator: TA1537, Metabolic Activation: RAT, LIVER, S-9, AROCLOR 1254 (10%), Method: PREINCUBATION
  mutagenic call: inactive; negative

## C[C@]12CCC(=O)C=C1CC[C@@H]1[C@@H]2[C@@H](O)C[C@@]2(C)[C@H]1CC[C@]2(O)C(=O)CO
End Point: IN VITRO CHROMOSOMAL ABERRATIONS, Test System: HUMAN PERIPHERAL BLOOD LYMPHOCYTES, Metabolic Activation: NONE
  mutagenic call: active; positive
Test System: UDS RAT HEPATOCYTES, Strain/Indicator: THY INCORP (18-20 HR), Metabolic Activation: NONE, Method: LIQUID SCINTILLATION COUNTING
  mutagenic call: inactive; negative

## ClC/C=C/CCl
Test System: AMES SALMONELLA TYPHIMURIUM, Strain/Indicator: TA98, Metabolic Activation: HAMSTER, LIVER, S-9, AROCLOR 1254 (10%), Method: STANDARD PLATE
  mutagenic call: active; positive
[2]
  mutagenic call: active; positive
Test System: AMES SALMONELLA TYPHIMURIUM, Strain/Indicator: TA98, Metabolic Activation: RAT, LIVER, S-9, AROCLOR 1254 (10%), Method: STANDARD PLATE
  mutagenic call: active; positive
Test System: AMES SALMONELLA TYPHIMURIUM, Strain/Indicator: TA100, Metabolic Activation: HAMSTER, LIVER, S-9, AROCLOR 1254 (10%), Method: STANDARD PLATE
  mutagenic call: active; positive
[3]
  mutagenic call: active; positive
Test System: AMES SALMONELLA TYPHIMURIUM, Strain/Indicator: TA100, Metabolic Activation: RAT, LIVER, S-9, AROCLOR 1254 (10%), Method: STANDARD PLATE
  mutagenic call: active; positive
Test System: MOUSE LYMPHOMA, Strain/Indicator: L5178Y (TK+/TK-), Metabolic Activation: NONE, Method: SUSPENSION/PLATE
  mutagenic call: active; positive. reevaluation of results: inconclusive
Test System: MOUSE LYMPHOMA, Strain/Indicator: L5178Y (TK+/TK-), Metabolic Activation: RAT, LIVER, S-9, AROCLOR 1254, Method: SUSPENSION/PLATE
  mutagenic call: active; positive. reevaluation of results: positive

## Cc1ccc(CCC2CO2)cc1 (stereo not drawn)
[5]
  mutagenic call: inactive; negative
[3]
  mutagenic call: active; positive
[6]
  mutagenic call: inactive; negative
Test System: AMES SALMONELLA TYPHIMURIUM, Strain/Indicator: TA1535, Metabolic Activation: NONE, Method: STANDARD PLATE
  mutagenic call: active; positive
